Test results taken from ChEMBL document CHEMBL5625202, “Synthesis, characterization and anti-breast cancer activities of stachydrine derivatives” (Eur J Med Chem, 2023).
pIC50: −log10 of the molar value. Activity calls are given as the source filed them. The rule behind the calls is not given here.

Experiments:
4T1 [1] = test: Anticancer activity against mouse 4T1 cells assessed as inhibition of cell growth incubated for 24 hrs by CCK-8 assay; type: functional, cell-based; conditions: 4T1, 24 h
4T1 [2] = test: Anticancer activity against mouse 4T1 cells assessed as inhibition of cell growth incubated for 48 hrs by CCK-8 assay; type: functional, cell-based; conditions: 4T1, 48 h
4T1 [3] = test: Anticancer activity against mouse 4T1 cells assessed as inhibition of cell growth incubated for 72 hrs by CCK-8 assay; type: functional, cell-based; conditions: 4T1, 72 h
4T1 [4] = test: Induction of apoptosis in mouse 4T1 cells assessed as apoptotic rate at 1.25 micromol/L incubated for 24 hrs by Annexin-V/PI staining based flow cytometry relative to control; type: functional; conditions: dose 1.25 µmol/L, at 1.25 µM
4T1 [5] = test: Induction of apoptosis in mouse 4T1 cells assessed as apoptotic rate at 10 micromol/L incubated for 24 hrs by Annexin-V/PI staining based flow cytometry relative to control; type: functional; conditions: dose 10 µmol/L, at 10 µM
4T1 [6] = test: Induction of apoptosis in mouse 4T1 cells assessed as apoptotic rate at 40 micromol/L incubated for 24 hrs by Annexin-V/PI staining based flow cytometry relative to control; type: functional; conditions: dose 40 µmol/L, at 40 µM
4T1 [7] = test: Induction of cell cycle arrest in mouse 4T1 cells assessed as accumulation of cells in G0/G1 phase at 40 micromol/L incubated for 24 hrs by flow cytometry (reference value: 53.6%); type: functional; conditions: dose 40 µmol/L, at 40 µM
4T1 [8] = test: Induction of cell cycle arrest in mouse 4T1 cells assessed as accumulation of cells in G0/G1 phase at 10 uM incubated for 24 hrs by flow cytometry relative to control; type: functional
4T1 [9] = test: Inhibition of cell migration in mouse 4T1 cells assessed as reduction in wound healing incubated for 24 hrs by microscopic analysis; type: functional, cell-based
4T1 [10] = test: Inhibition of cell invasion in mouse 4T1 cells at 30 micromol/mL incubated for 24 hrs by microscopic analysis; type: functional, cell-based; conditions: dose 30.0 µmol/ml
[11] = AUC (0 to t) in Sprague-Dawley rat plasma at 10 mg/kg, po measured upto 24 hrs by LC-MS/MS analysis; type: ADME, organism-based
[12] = Oral bioavailability in Sprague-Dawley rat at 10 mg/kg measured upto 24 hrs by LC-MS/MS analysis; type: ADME, organism-based; conditions: in vivo
[13] = Toxicity in BALB/c mouse implanted with mouse 4T1 cells assessed as change in lung histopathology at 0.2 mmol/Kg, po administered once every day for 14 days; type: organism-based; conditions: in vivo, 336 h, time 14 day
4T1 [14] = test: Antitumor activity against mouse 4T1 cells implanted in BALB/c mouse assessed as tumor growth inhibition at 0.2 mmol/Kg, po administered once every day for 14 days relative to control; type: functional; conditions: 4T1, 336 h, time 14 day, read-out: TGI
4T1 [15] = test: Antitumor activity against mouse 4T1 cells implanted in BALB/c mouse assessed as tumor cell shrinkage at 0.2 mmol/Kg, po administered once every day for 14 days by histological staining based analysis; type: functional, organism-based; conditions: time 14.0 day
[16] = Toxicity in BALB/c mouse implanted with mouse 4T1 cells assessed as increase in neutrophil granulocytes at 0.2 mmol/Kg, po administered once every day for 14 days by routine blood analysis; type: organism-based; conditions: in vivo, 336 h, time 14 day
[17] = Toxicity in BALB/c mouse implanted with mouse 4T1 cells assessed as increase in monocytes at 0.2 mmol/Kg, po administered once every day for 14 days by routine blood analysis; type: organism-based; conditions: in vivo, 336 h, time 14 day
[18] = Toxicity in BALB/c mouse implanted with mouse 4T1 cells assessed as increase in AST level at 0.2 mmol/Kg, po administered once every day for 14 days by routine blood analysis; type: organism-based; conditions: in vivo, 336 h, time 14 day
[19] = Toxicity in BALB/c mouse implanted with mouse 4T1 cells assessed as reduction in spleen index at 0.2 mmol/Kg, po administered once every day for 14 days relative to control; type: organism-based; parameters: scale not given: the % may be the effect or the level left; conditions: in vivo, 336 h, at 0.2 mmol/kg, time 14 day
[20] = Toxicity in BALB/c mouse implanted with mouse 4T1 cells assessed as increase in spleen edema at 0.2 mmol/Kg, po administered once every day for 14 days relative to control; type: organism-based; conditions: in vivo, 336 h, time 14 day
[21] = Toxicity in BALB/c mouse implanted with mouse 4T1 cells assessed as change in heart histopathology at 0.2 mmol/Kg, po administered once every day for 14 days; type: organism-based; conditions: in vivo, 336 h, time 14 day
[22] = Toxicity in BALB/c mouse implanted with mouse 4T1 cells assessed as change in liver histopathology at 0.2 mmol/Kg, po administered once every day for 14 days; type: organism-based; conditions: in vivo, 336 h, time 14 day
4T1 [23] = test: Induction of apoptosis in mouse 4T1 cells assessed as increase in cleaved caspase-3 expression at 10 uM incubated for 24 hrs by Western blot analysis; type: functional, cell-based
4T1 [24] = test: Induction of apoptosis in mouse 4T1 cells assessed as increase in Bax expression at 10 uM incubated for 24 hrs by Western blot analysis; type: functional, cell-based
4T1 [25] = test: Induction of apoptosis in mouse 4T1 cells assessed as decrease in Bcl2 expression at 10 uM incubated for 24 hrs by Western blot analysis; type: functional, cell-based
4T1 [26] = test: Induction of apoptosis in mouse 4T1 cells assessed as caspase-3 activation at 10 uM incubated for 24 hrs by Western blot analysis; type: functional, cell-based
4T1 [27] = test: Induction of G0/G1 phase cell cycle arrest in mouse 4T1 cells assessed as decrease in S phase cells at 1.25 to 40 uM incubated for 24 hrs by flow cytometry; type: functional, cell-based; conditions: dose 1.25-40 µM
4T1 [28] = test: Induction of G0/G1 phase cell cycle arrest in mouse 4T1 cells assessed as decrease in G2/M phase cells at 1.25 to 40 uM incubated for 24 hrs by flow cytometry; type: functional, cell-based; conditions: dose 1.25-40 µM
[29] = Tmax in Sprague-Dawley rat plasma at 10 mg/kg, po measured upto 24 hrs by LC-MS/MS analysis; type: ADME, organism-based
4T1 [30] = test: Antitumor activity against mouse 4T1 cells implanted in BALB/c mouse assessed as change in tumor weight at 0.2 mmol/Kg, po administered once every day for 14 days; type: functional, organism-based; conditions: time 14.0 day
[31] = Toxicity in BALB/c mouse implanted with mouse 4T1 cells assessed as increase in mean platelet volume at 0.2 mmol/Kg, po administered once every day for 14 days by routine blood analysis; type: organism-based; conditions: in vivo, 336 h, time 14 day
[32] = Toxicity in BALB/c mouse implanted with mouse 4T1 cells assessed as blurred spleen morphology at 0.2 mmol/Kg, po administered once every day for 14 days; type: organism-based; conditions: in vivo, 336 h, time 14 day
[33] = Toxicity in BALB/c mouse implanted with mouse 4T1 cells assessed as splenic edema at 0.2 mmol/Kg, po administered once every day for 14 days; type: organism-based; conditions: in vivo, 336 h, time 14 day
[34] = Toxicity in BALB/c mouse implanted with mouse 4T1 cells assessed as increase in splenic red pulp at 0.2 mmol/Kg, po administered once every day for 14 days; type: organism-based; conditions: in vivo, 336 h, time 14 day
[35] = Toxicity against BALB/c mouse implanted with mouse 4T1 cells assessed as animal death at 0.2 mmol/Kg, po administered once every day for 14 days; type: organism-based; conditions: in vivo, 336 h, time 14 day
[36] = Prodrug conversion in carboxylesterase (unknown origin) solution assessed as drug hydrolysis by measuring stachydrine release at 3 to 20 hrs; type: ADME, Homo sapiens; conditions: time 3-20 hrs
[37] = Prodrug conversion in cell culture medium containing 10% FBS assessed as drug hydrolysis by measuring stachydrine release at 3 to 20 hrs; type: ADME; conditions: cattle; time 3-20 hrs
4T1 [38] = test: Antitumor activity against mouse 4T1 cells implanted in BALB/c mouse assessed as tumor cell necrosis at 0.2 mmol/Kg, po administered once every day for 14 days by histological staining based analysis; type: functional, organism-based; conditions: time 14.0 day

**Q.** With CCCCCCCCCCCCOC(=O)C1CCC[N+]1(C)C.[Cl-] (stereo not drawn) as the molecule, how does the pIC50 (4T1 [1]) read?
**A.** 4.61

**Q.** What about the pIC50 (4T1 [2]) of the same molecule?
**A.** 4.75

**Q.** And the pIC50 (4T1 [3])?
**A.** 5.08

**Q.** And the Activity (4T1 [4])?
**A.** 38.5%

**Q.** And the Activity (4T1 [5])?
**A.** 59%

**Q.** And the Activity (4T1 [6])?
**A.** 71.3%

**Q.** And the Activity (4T1 [7])?
**A.** 64.5%

**Q.** And the Activity (4T1 [8])?
**A.** ~56%

**Q.** What about the inhibition (4T1 [9]) of the same molecule?
**A.** Dose-Dependent Effect

**Q.** What about the inhibition (4T1 [10]) of the same molecule?
**A.** Active

**Q.** What about the AUC(0-t) at 24 h [11] of the same molecule?
**A.** 14800 ng·h/mL

**Q.** And the bioavailability [12]?
**A.** 79.6%

**Q.** What about the Activity [13] of the same molecule?
**A.** Non-Toxic

**Q.** And the inhibition in vivo at 200 µmol/kg (4T1 [14])?
**A.** 56.3%

**Q.** And the Activity (4T1 [15])?
**A.** Active

**Q.** What about the Activity [16] of the same molecule?
**A.** Non-Toxic

**Q.** What about the Activity [17] of the same molecule?
**A.** Non-Toxic

**Q.** What about the Activity [18] of the same molecule?
**A.** Toxic

**Q.** And the Activity [19]?
**A.** 60%

**Q.** What about the Activity [20] of the same molecule?
**A.** Toxic

**Q.** What about the Activity [21] of the same molecule?
**A.** Non-Toxic

**Q.** What about the Activity [22] of the same molecule?
**A.** Non-Toxic

**Q.** What about the Activity (4T1 [23]) of the same molecule?
**A.** Active

**Q.** What about the Activity (4T1 [24]) of the same molecule?
**A.** Active

**Q.** And the Activity (4T1 [25])?
**A.** Active

**Q.** And the Activity (4T1 [26])?
**A.** Active

**Q.** And the Activity (4T1 [27])?
**A.** Active

**Q.** What about the Activity (4T1 [28]) of the same molecule?
**A.** Active

**Q.** What about the Tmax [29] of the same molecule?
**A.** 2 h

**Q.** What about the Activity (4T1 [30]) of the same molecule?
**A.** Active

**Q.** What about the Activity [31] of the same molecule?
**A.** Non-Toxic

**Q.** What about the Activity [32] of the same molecule?
**A.** Toxic

**Q.** And the Activity [33]?
**A.** Toxic

**Q.** And the Activity [34]?
**A.** Toxic

**Q.** And the Activity [35]?
**A.** Non-Toxic

**Q.** What about the Drug metabolism [36] of the same molecule?
**A.** Metabolite_Detected

**Q.** And the Drug metabolism [37]?
**A.** Metabolite_Detected

**Q.** What about the Activity (4T1 [38]) of the same molecule?
**A.** Active
